Measured values reported in article PMC3961306, “Comparison of the Cancer Gene Targeting and Biochemical Selectivities of All Targeted Kinase Inhibitors Approved for Clinical Use” (PLoS ONE, 2014).

Assays:
Assay in all cases: Kinase profiling in a biochemical assay panel (mobility shift assays and ELISA), %-inhibition at 1 μM; selectivity entropy
[1] = biological target: T1, panel of more than 300 wild-type and mutant kinases (313 kinase panel) (Homo sapiens, UniProt Q99683); conditions: kinase MAP3K5; compound at 1 μM
T1 sequence (Q99683 1-1374): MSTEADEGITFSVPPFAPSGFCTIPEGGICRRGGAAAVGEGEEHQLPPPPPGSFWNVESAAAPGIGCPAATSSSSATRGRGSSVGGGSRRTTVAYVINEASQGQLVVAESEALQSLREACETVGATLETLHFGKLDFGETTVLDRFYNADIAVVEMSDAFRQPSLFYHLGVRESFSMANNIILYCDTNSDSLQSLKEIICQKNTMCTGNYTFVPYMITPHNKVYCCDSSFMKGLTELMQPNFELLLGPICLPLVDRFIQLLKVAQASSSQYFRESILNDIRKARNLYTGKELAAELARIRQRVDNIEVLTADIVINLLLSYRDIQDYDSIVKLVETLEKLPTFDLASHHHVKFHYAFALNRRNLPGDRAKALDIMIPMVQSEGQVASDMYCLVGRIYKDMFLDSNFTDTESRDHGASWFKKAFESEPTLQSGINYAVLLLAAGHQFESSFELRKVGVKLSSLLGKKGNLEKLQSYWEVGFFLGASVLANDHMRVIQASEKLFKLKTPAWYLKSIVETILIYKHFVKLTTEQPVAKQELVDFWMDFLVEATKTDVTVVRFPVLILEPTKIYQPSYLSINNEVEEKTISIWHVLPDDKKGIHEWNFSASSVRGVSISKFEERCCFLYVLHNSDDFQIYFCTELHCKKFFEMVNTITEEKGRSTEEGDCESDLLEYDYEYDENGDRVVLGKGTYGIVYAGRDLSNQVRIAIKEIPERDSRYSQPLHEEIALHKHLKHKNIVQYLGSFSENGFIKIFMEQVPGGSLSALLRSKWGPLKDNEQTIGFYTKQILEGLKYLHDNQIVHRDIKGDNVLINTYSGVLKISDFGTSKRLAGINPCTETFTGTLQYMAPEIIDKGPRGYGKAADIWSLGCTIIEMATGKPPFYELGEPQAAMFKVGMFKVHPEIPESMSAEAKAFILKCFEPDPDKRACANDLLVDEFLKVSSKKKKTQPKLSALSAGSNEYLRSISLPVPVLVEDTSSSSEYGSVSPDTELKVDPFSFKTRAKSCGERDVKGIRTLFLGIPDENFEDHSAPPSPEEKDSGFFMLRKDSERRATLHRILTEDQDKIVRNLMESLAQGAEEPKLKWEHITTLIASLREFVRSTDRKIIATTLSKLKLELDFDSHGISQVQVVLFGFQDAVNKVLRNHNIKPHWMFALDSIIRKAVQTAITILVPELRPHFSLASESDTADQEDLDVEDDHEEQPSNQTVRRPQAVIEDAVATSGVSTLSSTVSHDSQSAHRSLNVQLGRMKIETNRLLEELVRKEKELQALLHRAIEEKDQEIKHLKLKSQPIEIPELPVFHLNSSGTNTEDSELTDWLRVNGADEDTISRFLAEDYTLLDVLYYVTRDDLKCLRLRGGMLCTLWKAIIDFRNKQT

[2] = biological target: panel of more than 300 wild-type and mutant kinases (313 kinase panel) (Homo sapiens, UniProt P29317); conditions: kinase EPHA2; compound at 1 μM
[3] = biological target: panel of more than 300 wild-type and mutant kinases (313 kinase panel) (Homo sapiens, UniProt P19784)
[4] = biological target: panel of more than 300 wild-type and mutant kinases (313 kinase panel) (Homo sapiens, UniProt Q9H0K1); conditions: kinase QIK; 1 μM
[5] = biological target: panel of more than 300 wild-type and mutant kinases (313 kinase panel) (Homo sapiens, UniProt O75116); conditions: kinase ROCK2; 1 μM
[6] = biological target: panel of more than 300 wild-type and mutant kinases (313 kinase panel) (Homo sapiens, UniProt P17252); conditions: kinase PKCα; 1 μM
[7] = biological target: T2, panel of more than 300 wild-type and mutant kinases (313 kinase panel) (Homo sapiens, UniProt Q8TF76); conditions: kinase Haspin; compound at 1 μM
T2 sequence (Q8TF76 1-798): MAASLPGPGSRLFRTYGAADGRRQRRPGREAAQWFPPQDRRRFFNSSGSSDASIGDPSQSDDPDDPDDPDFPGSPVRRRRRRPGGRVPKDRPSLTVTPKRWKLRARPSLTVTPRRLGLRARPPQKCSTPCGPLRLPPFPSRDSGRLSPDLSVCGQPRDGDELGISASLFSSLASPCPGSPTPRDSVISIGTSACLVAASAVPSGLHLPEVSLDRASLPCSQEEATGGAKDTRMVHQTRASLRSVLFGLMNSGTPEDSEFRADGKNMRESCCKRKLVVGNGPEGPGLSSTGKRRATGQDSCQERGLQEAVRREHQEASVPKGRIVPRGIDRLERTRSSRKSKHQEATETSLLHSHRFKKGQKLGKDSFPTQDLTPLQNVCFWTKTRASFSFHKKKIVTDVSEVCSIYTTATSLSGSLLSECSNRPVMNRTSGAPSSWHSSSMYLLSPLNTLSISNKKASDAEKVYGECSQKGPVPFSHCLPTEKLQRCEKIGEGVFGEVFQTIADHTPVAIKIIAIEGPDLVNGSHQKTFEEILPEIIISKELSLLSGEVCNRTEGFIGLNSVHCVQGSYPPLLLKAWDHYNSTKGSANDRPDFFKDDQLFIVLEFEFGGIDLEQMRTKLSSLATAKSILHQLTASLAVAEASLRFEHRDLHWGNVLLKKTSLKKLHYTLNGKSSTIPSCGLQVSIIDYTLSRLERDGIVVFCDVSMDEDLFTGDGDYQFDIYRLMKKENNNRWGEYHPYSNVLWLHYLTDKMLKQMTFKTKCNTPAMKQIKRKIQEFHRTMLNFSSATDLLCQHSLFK

[8] = biological target: panel of more than 300 wild-type and mutant kinases (313 kinase panel) (Homo sapiens, UniProt P28482); conditions: kinase Erk2; compound at 1 μM

panel of more than 300 wild-type and mutant kinases (313 kinase panel) (Homo sapiens, UniProt P19784), sequence (P19784 whole entry, change not shown): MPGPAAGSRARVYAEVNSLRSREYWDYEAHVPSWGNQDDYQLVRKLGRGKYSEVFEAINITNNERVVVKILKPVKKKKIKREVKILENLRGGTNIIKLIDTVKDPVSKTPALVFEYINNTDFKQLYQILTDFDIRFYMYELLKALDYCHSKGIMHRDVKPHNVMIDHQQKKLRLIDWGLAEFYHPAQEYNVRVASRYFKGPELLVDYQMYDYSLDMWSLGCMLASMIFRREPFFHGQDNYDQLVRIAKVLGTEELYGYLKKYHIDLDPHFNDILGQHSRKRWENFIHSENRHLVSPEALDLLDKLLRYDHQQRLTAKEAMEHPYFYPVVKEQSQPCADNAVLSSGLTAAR
panel of more than 300 wild-type and mutant kinases (313 kinase panel) (Homo sapiens, UniProt Q9H0K1), sequence (Q9H0K1 whole entry, change not shown): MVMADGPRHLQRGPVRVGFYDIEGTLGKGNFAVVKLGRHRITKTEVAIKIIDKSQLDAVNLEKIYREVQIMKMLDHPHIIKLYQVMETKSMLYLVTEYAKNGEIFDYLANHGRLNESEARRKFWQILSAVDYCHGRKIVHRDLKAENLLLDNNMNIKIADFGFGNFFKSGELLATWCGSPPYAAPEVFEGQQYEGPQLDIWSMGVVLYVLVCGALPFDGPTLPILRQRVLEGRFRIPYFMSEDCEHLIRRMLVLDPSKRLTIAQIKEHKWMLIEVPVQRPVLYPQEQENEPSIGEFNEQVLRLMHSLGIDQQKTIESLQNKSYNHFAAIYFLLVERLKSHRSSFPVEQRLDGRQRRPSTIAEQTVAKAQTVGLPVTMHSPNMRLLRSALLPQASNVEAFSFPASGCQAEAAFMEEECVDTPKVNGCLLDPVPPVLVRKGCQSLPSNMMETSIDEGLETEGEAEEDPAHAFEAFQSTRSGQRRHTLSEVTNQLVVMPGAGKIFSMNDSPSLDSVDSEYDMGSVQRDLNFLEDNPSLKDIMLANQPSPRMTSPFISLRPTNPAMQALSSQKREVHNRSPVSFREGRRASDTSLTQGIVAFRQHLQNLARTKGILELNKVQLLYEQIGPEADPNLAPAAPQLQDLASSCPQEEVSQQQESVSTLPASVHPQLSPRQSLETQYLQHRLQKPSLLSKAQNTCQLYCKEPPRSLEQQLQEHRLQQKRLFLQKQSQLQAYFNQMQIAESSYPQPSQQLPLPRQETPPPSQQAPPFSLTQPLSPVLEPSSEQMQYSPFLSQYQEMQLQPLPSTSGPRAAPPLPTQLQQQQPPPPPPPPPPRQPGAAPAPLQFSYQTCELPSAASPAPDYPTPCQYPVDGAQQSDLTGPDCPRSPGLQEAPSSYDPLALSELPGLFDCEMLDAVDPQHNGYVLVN

CNC(=O)c1cc(Oc2ccc(NC(=O)Nc3ccc(Cl)c(C(F)(F)F)c3)c(F)c2)ccn1 [regorafenib]
%-inhibition of MAP3K5 [1]: 5% | %-inhibition of EPHA2 [2]: 88% | %-inhibition, CK2α2/β ([3]; kinase CK2α2/β, 1 μM compound): -5.46% | %-inhibition of QIK [4]: -5.63% | %-inhibition of ROCK2 [5]: 2.65% | %-inhibition of PKCα [6]: -11% | %-inhibition of Haspin [7]: -8% | %-inhibition of Erk2 [8]: -5%

N#CC[C@H](C1CCCC1)n1cc(-c2ncnc3[nH]ccc23)cn1 [ruxolitinib]
%-inhibition of MAP3K5 [1]: 6% | %-inhibition of EPHA2 [2]: 28% | %-inhibition, CK2α2/β ([3]; 1 µM): -7% | %-inhibition of QIK [4]: 35% | %-inhibition of ROCK2 [5]: 87% | %-inhibition of PKCα [6]: 8% | %-inhibition of Haspin [7]: -6.62% | %-inhibition of Erk2 [8]: -5.62%

CO[C@H]1C[C@@H]2CC[C@@H](C)[C@@](O)(O2)C(=O)C(=O)N2CCCC[C@H]2C(=O)O[C@H]([C@H](C)C[C@@H]2CC[C@@H](OC(=O)C(C)(CO)CO)[C@H](OC)C2)CC(=O)[C@H](C)/C=C(\C)[C@@H](O)[C@@H](OC)C(=O)[C@H](C)C[C@H](C)/C=C/C=C/C=C/1C [temsirolimus]
%-inhibition of MAP3K5 [1]: 2.79% | %-inhibition of EPHA2 [2]: -5.58% | %-inhibition, CK2α2/β ([3]; kinase CK2α2/β, 1 μM compound): -5.28% | %-inhibition of QIK [4]: -3% | %-inhibition of ROCK2 [5]: -5.66% | %-inhibition of PKCα [6]: -6% | %-inhibition of Haspin [7]: 3% | %-inhibition of Erk2 [8]: -6%

CC(=O)Nc1cccc(-n2c(=O)n(C3CC3)c(=O)c3c(Nc4ccc(I)cc4F)n(C)c(=O)c(C)c32)c1 [trametinib]
%-inhibition of MAP3K5 [1]: 17% | %-inhibition of EPHA2 [2]: -8.53% | %-inhibition, CK2α2/β ([3]; kinase CK2α2/β, 1 μM compound): -5.29% | %-inhibition of QIK [4]: -4.66% | %-inhibition of ROCK2 [5]: 3% | %-inhibition of PKCα [6]: -5% | %-inhibition of Haspin [7]: 5% | %-inhibition of Erk2 [8]: -5%

COc1cc2c(Nc3ccc(Br)cc3F)ncnc2cc1OCC1CCN(C)CC1 [vandetanib]
%-inhibition of MAP3K5 [1]: 8% | %-inhibition of EPHA2 [2]: 86% | %-inhibition, CK2α2/β ([3]; kinase CK2α2/β, 1 μM compound): -7% | %-inhibition of QIK [4]: 95% | %-inhibition of ROCK2 [5]: -0.708% | %-inhibition of PKCα [6]: -0.27% | %-inhibition of Haspin [7]: -3.76% | %-inhibition of Erk2 [8]: -4%

CCCS(=O)(=O)Nc1ccc(F)c(C(=O)c2c[nH]c3ncc(-c4ccc(Cl)cc4)cc23)c1F [vemurafenib]
%-inhibition of MAP3K5 [1]: 13% | %-inhibition of EPHA2 [2]: 0.715% | %-inhibition, CK2α2/β ([3]; kinase CK2α2/β, 1 μM compound): -6.56% | %-inhibition of QIK [4]: 6% | %-inhibition of ROCK2 [5]: -0.177% | %-inhibition of PKCα [6]: -3.61% | %-inhibition of Haspin [7]: -3% | %-inhibition of Erk2 [8]: -4.58%
